Experimental data published in patent US8637510B2, “Morpholinothiazoles as alpha 7 positive allosteric modulators” (Janssen Pharmaceutica NV, priority 2009, dated 2014).

Target: T1, human alpha 7-wt nAChR (Homo sapiens, UniProt P36544)
T1 construct: expressed in transfected cells
Test: Ca2+ flux imaging (FDSS) (Protocol B)
Type: cell-based
Conditions: for EC50: potentiation of 100 μM choline, compounds 0.01 μM to 30 μM, read-out: a7-PAM-G_[33]_pEC50 pEC50 (converted); for Emax: efficacy of 100 μM choline defined as 100% in the absence of a PAM, read-out: a7-PAM-G_[33]_Eff_Curve_FI % Efficacy
Procedure: Ca^2+ Flux Imaging (FDSS) (Protocol B)
• Hanks buffered saline solution (HBSS, Invitrogen, Belgium), supplemented with 10 mM HEPES (Invitrogen, Belgium), CaCl2 to a final concentration of 5 mM, 0.1% Bovine serum albumin (Sigma-Aldrich NV, Belgium). b) Calcium-Sensitive Dye—Fluo-4AM • Fluo-4AM (Molecular Probes, USA) was dissolved in DMSO containing 10% Pluronic acid (Molecular Probes, USA) to give a stock solution which was diluted in assay buffer supplemented with 5 mM probenicid (Sigma, Aldrich NV, Belgium) to give a final concentration of 2 μM. c) 384-Well Plates • Black-sided, transparent bottomed 384 well plates coated with poly-D-lysine, PDL pre-coated (Corning, Incorporated, USA) d) Calcium Flux Measurement • A Functional drug screening system (FDSS, Hamamatsu) was used to measure intracellular free-calcium flux signals. Method
Monolayers of human alpha 7-wt nAChR-expressing cells were grown in black-sided, transparent bottomed 384 well plates coated with PDL for 24 hours prior to loading with a fluorescent calcium indicator, fluo-4AM for up to 120 minutes.
PAM activity was detected in real time by applying the compounds to be tested to the loaded cells along with an alpha 7 nicotinic receptor agonist during constant monitoring of cellular fluorescence in a FDSS. Compounds giving peak fluorescent responses greater than the response due to agonist alone, were considered to be alpha 7 nAChR PAMs. The alpha 7 nicotinic receptor agonist was choline, applied at a sub-maximal concentration of 100 μM. In a further setting of the present invention the compounds were applied prior to the alpha 7 nicotinic receptor agonist, in a particular 10 minutes prior to the agonist.
A control response to choline was calculated on each plate from the difference in peak in fluorescence in wells receiving either choline or assay buffer alone. Compounds of the present invention were tested at a concentration range from 0.01 μM to 30 μM. Compounds were considered to have an interesting activity when they potentiated the choline signal at least with 200% when tested at a concentration of 30 μM (the efficacy of 100 μM choline was defined as 100% in the absence of a PAM). An EC50 (or pEC50) was determined as a concentration relating to half the maximal effect, when a clear sigmoidal curve with top plateau was obtained.

T1 sequence (P36544 23-502): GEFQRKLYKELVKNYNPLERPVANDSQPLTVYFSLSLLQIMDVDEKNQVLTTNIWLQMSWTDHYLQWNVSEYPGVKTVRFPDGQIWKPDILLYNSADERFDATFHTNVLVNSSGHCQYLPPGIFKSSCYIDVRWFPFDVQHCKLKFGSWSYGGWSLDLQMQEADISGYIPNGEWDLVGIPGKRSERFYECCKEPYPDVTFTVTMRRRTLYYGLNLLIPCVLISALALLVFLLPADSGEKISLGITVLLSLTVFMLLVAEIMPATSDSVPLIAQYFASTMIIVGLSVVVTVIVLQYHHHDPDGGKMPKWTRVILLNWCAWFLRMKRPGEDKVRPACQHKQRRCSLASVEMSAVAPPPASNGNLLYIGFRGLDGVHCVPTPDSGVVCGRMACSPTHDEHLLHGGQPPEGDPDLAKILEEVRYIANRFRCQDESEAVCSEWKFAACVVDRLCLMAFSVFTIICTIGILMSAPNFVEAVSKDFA

EC50 [µM] | Emax [%] | Structure (SMILES)
0.794 |  | Cc1cc(-c2sc(N3CC(C)OC(C)C3)nc2CNC(=O)CC2CC2)cc(C)n1 (racemic) [Compound 55, N-[[2-[2,6-dimethyl-4-morpholinyl]-5-(2,6-dimethyl-4-pyridinyl)-4-thiazolyl]methyl]-cyclopropaneacetamide]
0.234 |  | Cc1cc(-c2sc(N3CC(C)OC(C)C3)nc2CNC(=O)c2ccc(F)cc2C)cc(C)n1 (racemic) [Compound 56, N-[[2-[2,6-dimethyl-4-morpholinyl]-5-(2,6-dimethyl-4-pyridinyl)-4-thiazolyl]methyl]-4-fluoro-2-methyl-benzamide]
0.692 | 783 | Cc1cc(-c2sc(N3CC(C)OC(C)C3)nc2CNC(=O)C2CCC2)cc(C)n1 (racemic) [Compound 57, N-[[2-[2,6-dimethyl-4-morpholinyl]-5-(2,6-dimethyl-4-pyridinyl)-4-thiazolyl]methyl]-cyclobutanecarboxamide]
0.977 |  | CCCC(=O)NCc1nc(N2CC(C)OC(C)C2)sc1-c1cc(C)nc(C)c1 (racemic) [Compound 61, N-[[2-[2,6-dimethyl-4-morpholinyl]-5-(2,6-dimethyl-4-pyridinyl)-4-thiazolyl]methyl]-butanamide]
0.912 |  | Cc1cc(-c2sc(N3CC(C)OC(C)C3)nc2CNC(=O)c2conc2C)cc(C)n1 (racemic) [Compound 68, N-[[2-[2,6-dimethyl-4-morpholinyl]-5-(2,6-dimethyl-4-pyridinyl)-4-thiazolyl]methyl]-3-methyl-4-isoxazolecarboxamide]
 | 313 | Cc1cc(-c2sc(N3C[C@@H](C)O[C@@H](C)C3)nc2CNC(=O)c2ccccc2F)cc(C)n1 [Compound 6, N-[[2-[(2R,6S)-2,6-dimethyl-4-morpholinyl]-5-(2,6-dimethyl-4-pyridinyl)-4-thiazolyl]methyl]-2-fluoro-benzamide]
0.0224 | 651 | Cc1cc(-c2sc(N3C[C@@H](C)O[C@@H](C)C3)nc2CNC(=O)C2CCCC2)cc(C)n1 [Compound 16, N-[[2-[(2R,6S)-2,6-dimethyl-4-morpholinyl]-5-(2,6-dimethyl-4-pyridinyl)-4-thiazolyl]methyl]-cyclopentanecarboxamide]
1.74 | 253 | Cc1cc(-c2sc(N3C[C@@H](C)O[C@@H](C)C3)nc2CNC(=O)c2nc(C)oc2C(F)(F)F)cc(C)n1 [Compound 20, N-[[2-[(2R,6S)-2,6-dimethyl-4-morpholinyl]-5-(2,6-dimethyl-4-pyridinyl)-4-thiazolyl]methyl]-2-methyl-5-(trifluoromethyl)-4-oxazolecarboxamide]
0.0724 | 572 | Cc1ccc(C(=O)NCc2nc(N3C[C@@H](C)O[C@@H](C)C3)sc2-c2cc(C)nc(C)c2)c(C)c1 [Compound 21, N-[[2-[(2R,6S)-2,6-dimethyl-4-morpholinyl]-5-(2,6-dimethyl-4-pyridinyl)-4-thiazolyl]methyl]-2,4-dimethyl-benzamide]
0.02 | 484 | Cc1cc(-c2sc(N3C[C@@H](C)O[C@@H](C)C3)nc2CNC(=O)c2ccc(Cl)cc2C)cc(C)n1 [Compound 22, 4-chloro-N-[[2-[(2R,6S)-2,6-dimethyl-4-morpholinyl]-5-(2,6-dimethyl-4-pyridinyl)-4-thiazolyl]methyl]-2-methyl-benzamide]
0.141 | 631 | Cc1cc(-c2sc(N3C[C@@H](C)O[C@@H](C)C3)nc2CNC(=O)c2cccc(Cl)c2Cl)cc(C)n1 [Compound 26, 2,3-dichloro-N-[[2-[(2R,6S)-2,6-dimethyl-4-morpholinyl]-5-(2,6-dimethyl-4-pyridinyl)-4-thiazolyl]methyl]-benzamide]
0.525 | 403 | Cc1cc(-c2sc(N3C[C@@H](C)O[C@@H](C)C3)nc2CNC(=O)c2ccccc2)cc(C)n1 [Compound 27, N-[[2-[(2R,6S)-2,6-dimethyl-4-morpholinyl]-5-(2,6-dimethyl-4-pyridinyl)-4-thiazolyl]methyl]-benzamide]
0.447 | 409 | Cc1cc(-c2sc(N3C[C@@H](C)O[C@@H](C)C3)nc2CNC(=O)[C@H]2CCOC2)cc(C)n1 [Compound 28, (3S)-N-[[2-[(2R,6S)-2,6-dimethyl-4-morpholinyl]-5-(2,6-dimethyl-4-pyridinyl)-4-thiazolyl]methyl]tetrahydro-3-furancarboxamide]
 | 593 | Cc1cc(-c2sc(N3C[C@@H](C)O[C@@H](C)C3)nc2CNC(=O)c2sc(C)nc2C)cc(C)n1 [Compound 29, N-[[2-[(2R,6S)-2,6-dimethyl-4-morpholinyl]-5-(2,6-dimethyl-4-pyridinyl)-4-thiazolyl]methyl]-2,4-dimethyl-5-thiazolecarboxamide]
0.513 | 551 | COc1ccc(C(=O)NCc2nc(N3C[C@@H](C)O[C@@H](C)C3)sc2-c2cc(C)nc(C)c2)cc1 [Compound 30, N-[[2-[(2R,6S)-2,6-dimethyl-4-morpholinyl]-5-(2,6-dimethyl-4-pyridinyl)-4-thiazolyl]methyl]-4-methoxy-benzamide]
 | 495 | Cc1cc(-c2sc(N3C[C@@H](C)O[C@@H](C)C3)nc2CNC(=O)c2coc(C)n2)cc(C)n1 [Compound 31, N-[[2-[(2R,6S)-2,6-dimethyl-4-morpholinyl]-5-(2,6-dimethyl-4-pyridinyl)-4-thiazolyl]methyl]-2-methyl-4-oxazolecarboxamide]
0.275 | 519 | Cc1cc(-c2sc(N3C[C@@H](C)O[C@@H](C)C3)nc2CNC(=O)c2ccc(F)c(C(F)(F)F)c2)cc(C)n1 [Compound 33, N-[[2-[(2R,6S)-2,6-dimethyl-4-morpholinyl]-5-(2,6-dimethyl-4-pyridinyl)-4-thiazolyl]methyl]-4-fluoro-3-(trifluoromethyl)-benzamide]
 | 237 | Cc1cc(-c2sc(N3C[C@@H](C)O[C@@H](C)C3)nc2CNC(=O)C2(C)CC2)cc(C)n1 [Compound 34, N-[[2-[(2R,6S)-2,6-dimethyl-4-morpholinyl]-5-(2,6-dimethyl-4-pyridinyl)-4-thiazolyl]methyl]-1-methyl-cyclopropanecarboxamide]
 | 247 | Cc1cc(-c2sc(N3C[C@@H](C)O[C@@H](C)C3)nc2CNC(=O)C(C)(C)C)cc(C)n1 [Compound 47, N-[[2-[(2R,6S)-2,6-dimethyl-4-morpholinyl]-5-(2,6-dimethyl-4-pyridinyl)-4-thiazolyl]methyl]-2,2-dimethyl-propanamide]
0.0603 | 960 | Cc1cc(-c2sc(N3C[C@@H](C)O[C@@H](C)C3)nc2CNC(=O)CCC(C)C)cc(C)n1 [Compound 51, N-[[2-[(2R,6S)-2,6-dimethyl-4-morpholinyl]-5-(2,6-dimethyl-4-pyridinyl)-4-thiazolyl]methyl]-4-methyl-pentanamide]
6.17 | 582 | Cc1cc(-c2sc(N3C[C@@H](C)O[C@@H](C)C3)nc2CNC(=O)[C@@H]2CCCN2C)cc(C)n1 [Compound 52, (2S)-N-[[2-[(2R,6S)-2,6-dimethyl-4-morpholinyl]-5-(2,6-dimethyl-4-pyridinyl)-4-thiazolyl]methyl]-1-methyl-2-pyrrolidinecarboxamide]
2.82 |  | COCCC(=O)NCc1nc(N2C[C@@H](C)O[C@@H](C)C2)sc1-c1cc(C)nc(C)c1 [Compound 53, N-[[2-[(2R,6S)-2,6-dimethyl-4-morpholinyl]-5-(2,6-dimethyl-4-pyridinyl)-4-thiazolyl]methyl]-3-methoxy-propanamide]
